Structures can show the parent of a compound that is named as a salt. Where two headings read alike, the source gives them in different places.
Columns and labels:
[1] = molecular target: Rabbit Reticulocyte Lysate (eukaryotic protein synthesis); assay: Rabbit reticulocyte lysate luciferase assay (inhibition of eukaryotic protein synthesis); type: biochemical; settings: read-out: Rabbit reticulocyte IC50 (μM/% inhib.)
Procedure: Inhibition of eukaryotic protein synthesis was determined using the Rabbit Reticulocyte Lysate System, Nuclease-Treated from Promega (catalog #L-4960) with slight modifications to the manufacturer's protocol. Compounds were serial diluted in 0.5 mL microcentrifuge tubes by mixing and transferring 50 μL from the highest concentration to 50 μL of water, mixing and transferring 50 μL of this 2-fold dilution to 50 μL of water. This mixing and transferring was repeated so that there are a total of 8 tubes with serial dilutions of compound at 10× the desired screening concentration that are ultimately diluted to 1× by the addition of rabbit reticulocyte luciferase synthesis mixture. Serial dilutions of compounds were added ([…]) to wells in a black round bottom 96-well plate. Water (2.5 μL) was used as a “no inhibitor” control in 4 wells/plate. No RNA control reaction mixture ([…]; see below) was used as a control in 4 wells/plate for background luminescence. Rabbit reticulocyte luciferase synthesis mixture (22.5 μL; see below) was added to wells with compounds or water mixture and incubated at 30° C. for 90 minutes. Luciferase assay reagent (25 μL) was added with luminescence measured using a BioTek Synergy HTX plate reader. % Inhibition was determined relative to no inhibitor controls.
Rabbit reticulocyte luciferase synthesis mixture:
• 1,000 μL rabbit reticulocyte lysate • 5.7 μL Luciferase Control RNA (1 μg/μL) • 26 μL complete amino acid mixture • 395 μL water No RNA Control • 70 μL rabbit reticulocyte lysate • 2 μL complete amino acid mixture • 28 μL water Minimum Inhibitory Concentration (MIC)

E. coli (Ec) = assay: Broth microdilution minimum inhibitory concentration (MIC); type: cell-based; settings: Escherichia coli, E. coli, read-out: E. coli + bicarb MIC
Procedure: A certified BSL-2 laboratory was used for testing. Compounds were evaluated using the broth microdilution minimum inhibitory concentration (MIC) and minimum bactericidal concentration (MBC) assays defined by Clinical and Laboratory Standards Institute (CLSI) in the M26-A guideline against S. aureus (Sa), E. coli (Ec), K. pneumoniae (Kp), A. baumannii (Ab), E. faecalis (Ef) and P. aeruginosa (Pa).
MICs were determined using the Clinical Laboratory and Standards Institute (CLSI) Broth Microdilution Method with slight modification. Clinical and Laboratory Standards Institute (2012). “Methods for dilution antimicrobial susceptibility tests for bacteria that grow aerobically; approved standard, 9th ed. M07-A9. Clinical and Laboratory Standards Institute, Wayne, PA” Serial two-fold dilutions of compounds are prepared in sterile clear round-bottom 96-well plates.
To prepare microdilution trays, two-fold dilutions of antimicrobial agent are prepared in growth medium: Cation-Adjusted Mueller-Hinton Broth (CAMHB), or CAMHB supplemented with sodium bicarbonate (6.25 or 25 mM final concentration prepared from a 1.0M stock solution) or CAMHB supplemented with heat inactivated human serum (Fisher Cat. #BP2657100) 0-50% by adding 200 μL of the highest concentration to be tested (64 μg/mL, for example) in row A, mixing and transferring 100 μL from row A to 100 μL growth medium in row B, then repeating the mixing and transferring through row H of the 96-well plate, discarding the excess 100 μL remaining. This slight modification to the CLSI protocol enables evaluation of MICs for 3 compounds per plate in triplicate, albeit with only 8 compound dilutions (CLSI protocol enables 2 compounds in triplicate with 10 dilutions). Bacterial suspensions are added to a final concentration of 5×10^4 CFU/well by adding 5 μL of a 1:10 dilution of a 0.5 McFarland suspension (1×10^8 CFU/mL) for each bacterium evaluated. Bacterial suspensions were prepared using the growth method described by CLSI. Well-isolated colonies (3-5 from an agar plate) were selected using a sterile loop and used to inoculate a tube containing 4 mL of CAMHB. The cultures are incubated at 35±2° C. until it achieves or exceeds the turbidity of the 0.5 McFarland standard, determined by measuring A600nm (usually two to six hours). When growth exceeds a 0.5 McFarland standard, the turbidity is adjusted with broth to be equivalent to a 0.5 McFarland standard.

[2] = test system: E. coli S30 extract (bacterial protein synthesis); assay: E. coli S30 extract coupled transcription-translation luciferase assay (inhibition of bacterial protein synthesis); type: biochemical; settings: read-out: S30 IC50 (μM/% inhib.)
Procedure: E. coli S30 extract: Inhibition of bacterial protein synthesis was determined using the E. coli S30 Extract System for Circular DNA (Promega catalog #L-2010) and Luciferase Assay Reagent (Promega catalog #E1500) with slight modifications to a published protocol. Fyfe, C., Sutcliffe, J. A. and Grossman, T. H. (2012) “Development and characterization of a Pseudomonas aeruginosa in vitro coupled transcription-translation assay system for evaluation of translation inhibitors” J. Microbiol. Methods 90(3), 256-261.
Compounds were serial diluted in 0.5 mL microcentrifuge tubes by mixing and transferring 50 μL from the highest concentration to 50 μL of water, mixing and transferring 50 μL of this 2-fold dilution to 50 μL of water. This mixing and transferring was repeated so that there are a total of 8 tubes with serial dilutions of compound at 10× the desired screening concentration that are ultimately diluted to 1× by the addition of S30 luciferase synthesis mixture. Serial dilutions of compounds were added (2 μL) to wells in a black round bottom 96-well plate. Water (2 μL) was used as a “no inhibitor” control in 4 wells/plate. No DNA control reaction mixture (20 μL; see below) was used as a control in 4 wells/plate for background luminescence. S30 luciferase synthesis mixture (18 μL; see below) was added to wells with compounds or water mixture and incubated at 37° C. for 1 hour. Reactions were stopped by transferring to 4° C. refrigerator for 5 minutes then 25 μL of luciferase activity mix was added. Luminescence was measured using a BioTek Synergy HTX plate reader. % Inhibition was determined relative to no inhibitor controls.
S30 luciferase synthesis mixture:
• 445 μL S30 extract, circular • 712 μL S30 Premix without amino acids • 4.45 μL pBESTluc™ DNA (1 μg/μL) • 78 μL complete amino acid mixture • 267 μL water No DNA control: • 20 μL S30 extract, circular • 32 μL S30 Premix without amino acids • 7 μL complete amino acid mixture • 21 μL water Rabbit Reticulocyte lysate

[3] = class by IC50 or % inhibition @ 1 μM
[4] = growth medium with sodium bicarbonate
[5] = growth medium supplemented with sodium bicarbonate

Compound	IC50 [1, 3] [µM]	IC50 [2, 3] [µM]	further results
CC(C)(N)CN1CCN(Cc2ccc(-n3ccc(NC(=O)N4CCN(C(=O)C(C)(C)N)CC4)nc3=O)cc2)CC1 [Compound 226]	> 1	< 0.5	MIC (E. coli (Ec); [4]): < 8 µg/mL
CC(C)(N)C(=O)N1CCN(C(=O)Nc2ccn(-c3ccc(CN4CCC(CCN)CC4)cc3)c(=O)n2)CC1 [Compound 218]	> 1	< 0.5	MIC (E. coli (Ec); [4]): < 8 µg/mL
CO[C@@H]1CN(Cc2ccc(-n3ccc(NC(=O)N4CCN(C(=O)C(C)(C)N)CC4)nc3=O)cc2)CC[C@H]1N [Compound 216]	–	> 1	MIC (E. coli (Ec); [4]): 8 to 32 µg/mL
CN(C)C1CCN(Cc2ccc(-n3ccc(NC(=O)N4CCN(C(=O)C(C)(C)N)CC4)nc3=O)cc2)CC1 [Compound 214]	–	< 0.5	MIC (E. coli (Ec); [4]): < 8 µg/mL
CC(C)(N)C(=O)N1CCN(C(=O)Nc2ccn(-c3ccc(CN4CCC(O)(CN)CC4)cc3)c(=O)n2)CC1 [Compound 215]	–	< 0.5	MIC (E. coli (Ec); [4]): < 8 µg/mL
C[C@H]1CN(C(=O)Nc2ccn(-c3ccc(CN4CCC(N)CC4)cc3)c(=O)n2)CCN1C(=O)C(C)(C)N [Compound 72]	> 1	0.5 to 1	–
NC1CCN(Cc2ccc(-n3ccc(NC(=O)N4CCCNCC4)nc3=O)cc2)CC1 [Compound 54]	> 1	> 1	–
CC(C)[C@H](N)C(=O)NC(C)(C)C(=O)N1CCN(C(=O)Nc2ccn(-c3ccc(CN4CCC(N)CC4)cc3)c(=O)n2)CC1 [Compound 364, hydrochloride salt]	–	–	IC50 ([1]; % inhibition @ 1 μM): > 1 µM; IC50 ([2]; % inhibition @ 1 μM): < 0.5 µM
CC(C)(N)C(=O)N1CCN(C(=O)Nc2ccn(-c3ccc(C(C(=O)O)N4CCC(N)CC4)cc3)c(=O)n2)CC1 (stereo not drawn) [Compound 93]	–	> 1	MIC (E. coli (Ec); [5]): > 32 µg/mL
NC1CCN(Cc2ccc(-n3ccc(NC(=O)N4CCC[C@H](N)C4)nc3=O)cc2)CC1 [Compound 48]	> 1	> 1	–
CC(C)(N)C(=O)N1CCN(C(=O)Nc2ccn(-c3ccc(C(C)(C)CN4CC[C@H](CN)C4)cc3)c(=O)n2)CC1 [Compound 39]	> 1	> 1	–
CC(C)(N)C(=O)N1CCN(C(=O)Nc2ccn(-c3ccc(CN4CCC(C(F)(F)F)CC4)cc3)c(=O)n2)CC1 [Compound 107]	> 1	> 1	–
CC(C)(N)CC(=O)N1CCN(C(=O)Nc2ccn(-c3ccc(CN4CCC(N)CC4)c(C(F)(F)F)c3)c(=O)n2)CC1 [Compound 106]	> 1	> 1	–
CC(C)(N)C(=O)N1CCN(C(=O)Nc2ccn(-c3ccc(C(C)(C)CN4CCCC(N)CC4)cc3)c(=O)n2)CC1 (stereo not drawn) [Compound 37]	> 1	> 1	–
COC(=O)[C@@H]1CN(C(=O)C(C)(C)N)CCN1C(=O)Nc1ccn(-c2ccc(CN3CCC(N)CC3)cc2)c(=O)n1 [Compound 63]	> 1	0.5 to 1	–
CC(C)(N)CC(=O)N1CCN(C(=O)Nc2ccn(-c3cccc(CN4CCC(C)(N)CC4)c3)c(=O)n2)CC1 [Compound 363, hydrochloride salt]	–	–	IC50 ([1]; % inhibition @ 1 μM): > 1 µM; IC50 ([2]; % inhibition @ 1 μM): > 1 µM

Compound	IC50 [1, 3] [µM]	IC50 [2, 3] [µM]	further results
CC1(N)CCN(CCc2ccc(-n3ccc(NC(=O)N4CCN(C(=O)C(C)(N)CO)CC4)nc3=O)cc2)CC1 (stereo in doubt) [Compound 361]	–	–	IC50 ([1]; % inhibition @ 1 μM): > 1 µM; IC50 ([2]; % inhibition @ 1 μM): > 1 µM
CC(C)(N)C(=O)N1CCN(C(=O)Nc2ccn(-c3cccc(CCN4CC[C@@H](N)C4)c3)c(=O)n2)CC1 [Compound 5]	> 1	> 1	–
Cc1cc(-n2ccc(NC(=O)N3CCN(C(=O)C(C)(C)N)CC3)nc2=O)ccc1CN1CCC(NC(=N)N)CC1 [Compound 104]	> 1	< 0.5	–
CC(C)(N)C(=O)N1CCN(C(=O)Nc2ccn(-c3ccc(CCN4CCC(CN)CC4)cc3)c(=O)n2)CC1 [Compound 1]	> 1	0.5 to 1	–
NC1CCN(Cc2ccc(-n3ccc(NC(=O)N4C[C@H]5CNC[C@H]5C4)nc3=O)cc2)CC1 [Compound 50]	> 1	> 1	–
CC(C)(N)C(=O)N1C[C@@H]2CC1CN2C(=O)Nc1ccn(-c2ccc(CN3CCC(N)CC3)cc2)c(=O)n1 [Compound 80]	> 1	0.5 to 1	–
CC(C)(N)C(=O)N1CCN(C(=O)Nc2ccn(-c3ccc(CN4CC[C@@H](N)[C@H](F)C4)cc3)c(=O)n2)CC1 [Compound 208]	–	> 1	MIC (E. coli (Ec); [4]): 8 to 32 µg/mL
C[C@](N)(CO)C(=O)N1CCN(C(=O)Nc2ccn(-c3ccc(CCN4CC[C@H](N)C4)cc3)c(=O)n2)CC1 [Compound 13]	> 1	> 1	–
NC[C@H]1CCN(C(=O)Nc2ccn(-c3ccc(CN4CCC(N)CC4)cc3)c(=O)n2)C1 [Compound 52]	> 1	> 1	–
CC(C)(N)C(=O)N1CCN(C(=O)Nc2ccn(-c3ccc(C(C)(C)CN4CC[C@@H](CN)C4)cc3)c(=O)n2)CC1 [Compound 38]	> 1	> 1	–
Cc1cc(-n2ccc(NC(=O)N3CCN(C(=O)C(C)(N)CO)CC3)nc2=O)ccc1CN1CCC(N)CC1 (stereo not drawn) [Compound 101]	> 1	0.5 to 1	–
CC(C)(N)C(=O)N1CCN(C(=O)Nc2ccn(-c3ccc(C4(CN5CCCC(N)CC5)CC4)cc3)c(=O)n2)CC1 (stereo not drawn) [Compound 40]	> 1	> 1	–
CCOC(=O)C(c1ccc(-n2ccc(NC(=O)N3CCN(C(=O)C(C)(C)N)CC3)nc2=O)cc1)N1CCC(N)CC1 (stereo not drawn) [Compound 92]	–	> 1	MIC (E. coli (Ec); [5]): > 32 µg/mL
CC(C)(N)C(=O)N1CCN(C(=O)Nc2ccn(-c3ccc(CCN4CC(N)C4)cc3)c(=O)n2)CC1 [Compound 16]	> 1	> 1	–
CC(C)(N)C(=O)N1CC2CCC1CN2C(=O)Nc1ccn(-c2ccc(CN3CCC(N)CC3)cc2)c(=O)n1 (stereo not drawn) [Compound 87]	> 1	> 1	–
CC[C@@H]1CN(C(=O)Nc2ccn(-c3ccc(CN4CCC(N)CC4)cc3)c(=O)n2)CCN1C(=O)C(C)(C)N [Compound 67]	> 1	> 1	–

— US12503452B2 (Curza Global, LLC, priority 2019, dated 2025)
